The values that follow come from patent US12084436B2, “Heterocyclic compound” (Takeda Pharmaceutical Company Limited, priority 2019, dated 2024).

The first test has as its target T1, HDAC6 enzyme (Homo sapiens, UniProt Q9UBN7).
T1 construct: prepared by transducing full length HDAC6 gene into Sf-9 insect cells; GST; purchased SignalChem; host or cells: Sf-9 insect cells
T1 sequence (Q9UBN7 1-1215): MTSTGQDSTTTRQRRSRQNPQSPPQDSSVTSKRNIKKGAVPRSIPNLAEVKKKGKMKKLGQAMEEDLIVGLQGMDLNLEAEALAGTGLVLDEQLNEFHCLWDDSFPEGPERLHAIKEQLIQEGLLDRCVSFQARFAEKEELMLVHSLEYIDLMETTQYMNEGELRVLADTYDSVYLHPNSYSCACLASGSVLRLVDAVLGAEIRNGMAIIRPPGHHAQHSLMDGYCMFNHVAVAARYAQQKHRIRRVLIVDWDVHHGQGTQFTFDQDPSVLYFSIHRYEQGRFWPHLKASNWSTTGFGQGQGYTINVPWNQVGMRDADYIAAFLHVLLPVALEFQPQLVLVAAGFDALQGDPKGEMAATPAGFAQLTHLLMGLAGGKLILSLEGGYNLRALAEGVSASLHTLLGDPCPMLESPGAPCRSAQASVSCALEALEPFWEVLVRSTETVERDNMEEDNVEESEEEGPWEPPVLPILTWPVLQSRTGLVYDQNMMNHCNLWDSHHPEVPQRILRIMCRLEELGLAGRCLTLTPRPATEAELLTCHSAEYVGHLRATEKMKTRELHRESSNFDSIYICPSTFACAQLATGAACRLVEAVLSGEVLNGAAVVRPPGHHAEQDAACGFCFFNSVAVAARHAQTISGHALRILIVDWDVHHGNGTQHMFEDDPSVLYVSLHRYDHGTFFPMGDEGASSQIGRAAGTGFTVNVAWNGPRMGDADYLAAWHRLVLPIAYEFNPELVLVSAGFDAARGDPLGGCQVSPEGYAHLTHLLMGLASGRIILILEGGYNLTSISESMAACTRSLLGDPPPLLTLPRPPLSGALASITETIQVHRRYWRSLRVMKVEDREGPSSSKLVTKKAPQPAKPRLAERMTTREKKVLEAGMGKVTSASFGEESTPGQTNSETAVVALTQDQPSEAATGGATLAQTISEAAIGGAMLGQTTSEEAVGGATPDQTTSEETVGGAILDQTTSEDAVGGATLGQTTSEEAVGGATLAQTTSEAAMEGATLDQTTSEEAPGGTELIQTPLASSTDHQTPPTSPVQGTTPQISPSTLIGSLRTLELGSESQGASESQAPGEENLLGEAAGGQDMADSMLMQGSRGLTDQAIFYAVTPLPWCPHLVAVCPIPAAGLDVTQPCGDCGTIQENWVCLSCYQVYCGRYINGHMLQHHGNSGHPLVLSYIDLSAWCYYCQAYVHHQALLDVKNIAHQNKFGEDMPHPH
Briefly: HDAC6 enzyme inhibitory assay (HDAC-Glo I/II Assay kit, luminescence). In kind it is biochemical. The conditions noted are these: 10 μM test compound; wells without enzyme = 100% inhibition; 10 µM. As for the experimental part:
HDAC6 Enzyme Inhibitory Assay
HDAC6 enzyme prepared by transducing full length HDAC6 gene into Sf-9 insect cells and purifying by GST affinity column were purchased from SignalChem. Using this enzyme, HDAC6 enzyme inhibitory activities of the compound of the present invention were evaluated. Enzymes were used after preserved at −70° C. HDAC6 enzyme inhibitory activity of the compound of the present invention was measured using HDAC-Glo™ I/II Assay kit (Promega) according to the following experimental method. The test compound diluted with assay buffer (24 mM Tris-HCl (pH 7.5), 1 mM MgCl2, 0.35 mM KCl, 135 mM NaCl, 0.6 mM Glutathione, 0.01% Tween-20) was added to a 384-well plate by each 2 μL. Then, HDAC6 enzyme solution diluted with assay buffer was added thereto by each 4 μL, and the plate was incubated at room temperature for 60 min. After incubated, HDAC substrate-Developer solution prepared according to Promega protocol attached to the assay kit was added to the 384-well plate by each 2 μL, and the enzyme reaction was started. After reacting at room temperature for 20 min, luminescence level was measured using plate reader Envision (PerkinElmer). The inhibitory activity of each compound of Example was calculated as a relative activity value when luminescence level in wells without enzyme is considered as 100% inhibition.
In the case of `CN1C(=O)c2cc(-c3nnc(C(F)F)o3)cnc2CC1(C)c1ccc(F)c(F)c1` (single isomer, unassigned; isomer 1) [Example 39b, 3-[5-(difluoromethyl)-1,3,4-oxadiazol-2-yl]-7-(3,4-difluorophenyl)-6,7-dimethyl-7,8-dihydro-1,6-naphthyridin-5(6H)-one (optical isomer 1)], the “HDAC6 inhibitory rate (%) (10 μM)” value is listed as 76%.

The same test, now with this note: 10 μM test compound; wells without enzyme = 100% inhibition; read-out: HDAC6 inhibitory rate (%) (10 μM).
For the molecule `Fc1cc(-c2nnc(C(F)F)o2)cc(-c2nccn2Cc2ccc(F)c(Cl)c2)c1` [Example 68a, 2-(3-{1-[(3-chloro-4-fluorophenyl)methyl]-1H-imidazol-2-yl]-5-fluorophenyl)-5-(difluoromethyl)-1,3,4-oxadiazole], the inhibition at 10 µM stood at 99%.

Take `O=C(OCC(F)F)N(Cc1ccc(F)cc1)N1Cc2ccc(-c3nnc(C(F)F)o3)cc2C1=O` [Example 16c, 2,2-difluoroethyl {6-[5-(difluoromethyl)-1,3,4-oxadiazol-2-yl]-1-oxo-1,3-dihydro-2H-isoindol-2-yl}[(4-fluorophenyl)methyl]carbamate]: the inhibition at 10 µM is 100%.

Take `Cc1ccc(C2(C)Oc3ccc(-c4nnc(C(F)F)o4)cc3C(=O)N2C)cc1` (stereo not drawn) [Example 22b, 6-[5-(difluoromethyl)-1,3,4-oxadiazol-2-yl]-2,3-dimethyl-2-(4-methylphenyl)-2,3-dihydro-4H-1,3-benzoxazin-4-one]: the inhibition at 10 µM was 100%.

On to `Fc1cccc(Cc2cncnc2-c2cc(-c3nnc(C(F)F)o3)ccn2)c1` [Example 90a, 4-{4-[5-(difluoromethyl)-1,3,4-oxadiazol-2-yl]pyridin-2-yl}-5-[(3-fluorophenyl)methyl]pyrimidine], for which the inhibition at 10 µM is 98%.

For `Fc1cc(-c2nnc(C(F)F)o2)cc(-n2nccc2OC2CCOCC2)c1` [Example 47a, 2-(difluoromethyl)-5-(3-fluoro-5-{5-[(oxan-4-yl)oxy]-1H-pyrazol-1-yl}phenyl)-1,3,4-oxadiazole], the inhibition at 10 µM was 99%.

On to `CN1C(=O)c2cc(-c3nnc(C(F)F)o3)ccc2CC1(C)c1ccc(F)cc1` (stereo not drawn) [Example 13b, 7-[5-(difluoromethyl)-1,3,4-oxadiazol-2-yl]-3-(4-fluorophenyl)-2,3-dimethyl-3,4-dihydroisoquinolin-1(2H)-one], for which the inhibition at 10 µM is 99%.

`CN1C(=O)c2cc(-c3nnc(C(F)F)o3)ccc2C[C@]1(C)c1ccc(F)c(F)c1` [Example 50b, (3R)-7-[5-(difluoromethyl)-1,3,4-oxadiazol-2-yl]-3-(3,4-difluorophenyl)-2,3-dimethyl-3,4-dihydroisoquinolin-1(2H)-one]: the inhibition at 10 µM is 101%.

On to `CN(CC1CCOCC1)N1Cc2ccc(-c3nnc(C(F)F)o3)cc2C1=O` [Example 41c, 6-[5-(difluoromethyl)-1,3,4-oxadiazol-2-yl]-2-{methyl[(oxan-4-yl)methyl]amino}-2,3-dihydro-1H-isoindol-1-one], for which the inhibition at 10 µM amounted to 99%.

In the case of `O=C1c2cc(-c3nnc(C(F)F)o3)ccc2CN1Nc1ccc(F)cn1` [Example 39c, 6-[5-(difluoromethyl)-1,3,4-oxadiazol-2-yl]-2-[(5-fluoropyridin-2-yl)amino]-2,3-dihydro-1H-isoindol-1-one], the inhibition at 10 µM worked out at 88%.

Take `CN(Cc1ccccc1N1CCOCC1)N1Cc2ccc(-c3nnc(C(F)F)o3)cc2C1=O` [Example 58c, 6-[5-(difluoromethyl)-1,3,4-oxadiazol-2-yl]-2-(methyl{[2-(morpholin-4-yl)phenyl]methyl}amino)-2,3-dihydro-1H-isoindol-1-one]: the inhibition at 10 µM turned out to be 100%.

Consider `Cn1ccc(Cn2ccnc2-c2cc(F)cc(-c3nnc(C(F)F)o3)c2)n1` [Example 23a, 2-(difluoromethyl)-5-(3-fluoro-5-{1-[(1-methyl-1H-pyrazol-3-yl)methyl]-1H-imidazol-2-yl}phenyl)-1,3,4-oxadiazole], for which the inhibition at 10 µM amounted to 96%.

Consider `CCNC(=O)Cn1ccnc1-c1cc(F)cc(-c2nnc(C(F)F)o2)c1` [Example 32a, 2-(2-{3-[5-(difluoromethyl)-1,3,4-oxadiazol-2-yl]-5-fluorophenyl]-1H-imidazol-1-yl)-N-ethylacetamide], for which the inhibition at 10 µM was 91%.

Regarding `CC(C)(C)OC(=O)N1CCC(Oc2cccnc2-c2cc(F)cc(-c3nnc(C(F)F)o3)c2)CC1` [Example 16a, tert-butyl 4-[(2-{3-[5-(difluoromethyl)-1,3,4-oxadiazol-2-yl]-5-fluorophenyl}pyridin-3-yl)oxy]piperidine-1-carboxylate], the inhibition at 10 µM was 98%.

`FC(F)c1nnc(-c2ccnc(-c3nc(Cl)c(Cl)n3Cc3ccccn3)c2)o1` [Example 40a, 2-{4,5-dichloro-1-[(pyridin-2-yl)methyl]-1H-imidazol-2-yl}-4-[5-(difluoromethyl)-1,3,4-oxadiazol-2-yl]pyridine]: the inhibition at 10 µM was 98%.

Turning to `COCCOc1cccnc1-c1cc(F)cc(-c2nnc(C(F)F)o2)c1` [Example 13a, 2-{3-[5-(difluoromethyl)-1,3,4-oxadiazol-2-yl]-5-fluorophenyl}-3-(2-methoxyethoxy)pyridine], the inhibition at 10 µM was found to be 92%.

Consider `COC(=O)N(Cc1ccc(F)cc1)N1Cc2ccc(-c3nnc(C(F)F)o3)cc2C1=O` [Example 1c, methyl {6-[5-(difluoromethyl)-1,3,4-oxadiazol-2-yl]-1-oxo-1,3-dihydro-2H-isoindol-2-yl}[(4-fluorophenyl)methyl]carbamate], for which the inhibition at 10 µM is 99%.

As for `Fc1cc(-c2nnc(C(F)F)o2)cc(-c2ncccc2OCC2CCOCC2)c1` [Example 7a, 2-{3-[5-(difluoromethyl)-1,3,4-oxadiazol-2-yl]-5-fluorophenyl]-3-[(oxan-4-yl)methoxy]pyridine], the inhibition at 10 µM is 100%.

On to `Fc1cccc(Cc2ccnn2-c2cc(-c3nnc(C(F)F)o3)ccn2)c1` [Example 87a, 4-[5-(difluoromethyl)-1,3,4-oxadiazol-2-yl]-2-{5-[(3-fluorophenyl)methyl]-1H-pyrazol-1-yl}pyridine], for which the inhibition at 10 µM is 99%.

As to `O=C1c2cc(-c3nnc(C(F)F)o3)cnc2CN1Nc1c(F)c(F)c(F)c(F)c1F` [Example 33c, 3-[5-(difluoromethyl)-1,3,4-oxadiazol-2-yl]-6-(pentafluoroanilino)-6,7-dihydro-5H-pyrrolo[3,4-b]pyridin-5-one], the inhibition at 10 µM amounted to 99%.

Consider `O=C1NN(CC(F)(F)F)Cc2ccc(-c3nnc(C(F)F)o3)cc21` [Example 15b, 7-[5-(difluoromethyl)-1,3,4-oxadiazol-2-yl]-3-(2,2,2-trifluoroethyl)-3,4-dihydrophthalazin-1(2H)-one], for which the inhibition at 10 µM worked out at 88%.

In the case of `O=C1NN(C2CCCCC2)Cc2ccc(-c3nnc(C(F)F)o3)cc21` [Example 11b, 3-cyclohexyl-7-[5-(difluoromethyl)-1,3,4-oxadiazol-2-yl]-3,4-dihydrophthalazin-1(2H)-one], the inhibition at 10 µM is 99%.

For the molecule `CN1C(=O)c2cc(-c3nnc(C(F)F)o3)cnc2CC1(C)c1ccc(F)c(F)c1` (stereo not drawn) [Example 38b, 3-[5-(difluoromethyl)-1,3,4-oxadiazol-2-yl]-7-(3,4-difluorophenyl)-6,7-dimethyl-7,8-dihydro-1,6-naphthyridin-5(6H)-one], the inhibition at 10 µM was determined as 101%.

On to `O=C1NN(C2CCOCC2)Cc2ccc(-c3nnc(C(F)F)o3)cc21` [Example 28b, 7-[5-(difluoromethyl)-1,3,4-oxadiazol-2-yl]-3-(oxan-4-yl)-3,4-dihydrophthalazin-1(2H)-one], for which the inhibition at 10 µM is 97%.
